Results from US7435732B2, “Crystalline polymorphs of (3S)-N-hydroxy-4-({4-[-(4-hydroxy-2-butynyl)oxy]phenyl}sulfonyl)-2,2-dimethyl-3-thiomorpholine carboxamide” (Wyeth, priority 2004, dated 2008).
Where two headings read alike, the source gives them in different places. One block for each molecule: values may come before it.

What was measured:
[1] = Solid form after open pan DSC heating, by powder XRD; type: physicochemical
Protocol: X-ray diffraction data (e.g., FIGS. 1, 4, 6 and 8) were collected using a Philips X'Pert PW-3040-MPD X-ray diffractometer (Philips, Bothell, Wash.) set at 40 kV and 40 mA. Data was collected as a continuous scan at 0.02°/sec. between […].
DSC data (e.g., FIG. 10) were collected using a TA Instruments DSC 2920 Differential Scanning Calorimeter (TA Instruments, New Castle, Del.). Measurements were carried out in both closed pan and open pan modes on about 5-35 mg samples. The heating profile was from 25° C. to 170° C. at 5° C./min, or 25° C. to 120° C. at 5° C./min with a ten minute holding time at 120° C., or 25° C. to 135° C. at 5° C./min with a five minute holding time at 135° C., or 25° C. to 150° C. at 5° C./min with a one minute holding time at 150° C.
A micronized sample of apratastat polymorph form A was subjected to three separate DSC experiments performed in the open pan mode as described in Example 5 above using the 120° C., 135° C., and 150° C. heating profiles. Each sample was cooled to ambient temperature and then recovered for powder X-ray diffraction (XRD) analysis as described in Example 2.
A milled sample of apratastat polymorph form A was subjected to similar DSC conditions.

[2] = Solid form conversion under humidity / ambient conditions; type: physicochemical
Protocol: Polymorph form B is likely also an anhydrous form of apratastat. […] Form B disappears upon mild heating (e.g., at or above about 35° C.) under ambient humidity levels.

[3] = target: T1, TNF-α converting enzyme (TACE) (Homo sapiens, UniProt P78536); assay: TACE inhibition in vitro; type: biochemical
[4] = system: human synovium tissue explants from patients suffering from rheumatoid arthritis; assay: TNF-α secretion by human synovium tissue explants; type: cell-based
TNF-α [5] = assay: murine lipopolysaccharide (LPS) model; type: in vivo
TNF-α [6] = assay: primate lipopolysaccharide (LPS) model; type: in vivo
[7] = target: T1, TNF-α converting enzyme (TACE); conditions: as described in U.S. Pat. No. 6,225,311; cited from earlier work
[8] = system: matrix metalloproteinase (MMP); conditions: cited from earlier work

T1 sequence (P78536 215-824, species assumed): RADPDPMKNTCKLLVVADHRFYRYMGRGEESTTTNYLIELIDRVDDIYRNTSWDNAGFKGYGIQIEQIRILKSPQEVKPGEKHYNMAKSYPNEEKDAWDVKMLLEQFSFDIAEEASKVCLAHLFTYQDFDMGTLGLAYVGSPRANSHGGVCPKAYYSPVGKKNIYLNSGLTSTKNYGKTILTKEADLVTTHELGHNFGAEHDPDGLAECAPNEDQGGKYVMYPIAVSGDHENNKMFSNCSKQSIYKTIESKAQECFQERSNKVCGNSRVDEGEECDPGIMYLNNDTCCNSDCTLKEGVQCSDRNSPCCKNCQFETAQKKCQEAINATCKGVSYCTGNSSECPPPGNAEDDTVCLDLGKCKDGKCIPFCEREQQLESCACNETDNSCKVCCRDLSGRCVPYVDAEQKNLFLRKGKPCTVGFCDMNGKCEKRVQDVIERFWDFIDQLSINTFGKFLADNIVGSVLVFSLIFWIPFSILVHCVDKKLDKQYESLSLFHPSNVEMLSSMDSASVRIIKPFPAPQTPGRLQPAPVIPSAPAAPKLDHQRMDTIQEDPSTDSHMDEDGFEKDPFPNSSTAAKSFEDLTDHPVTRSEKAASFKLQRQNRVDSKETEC

XRD form after heating ([1]; micronized sample, 120° C. heating profile, open pan): Form C
XRD form after heating ([1]; micronized sample, 135° C. heating profile, open pan): Form C
XRD form after heating ([1]; micronized sample, 150° C. heating profile, open pan): Amorphous
XRD form after heating ([1]; milled sample, 120° C. heating profile): Form C + D
XRD form after heating ([1]; milled sample, 135° C. heating profile): Form C + D
XRD form after heating ([1]; milled sample, 150° C. heating profile): Form D
SMILES: CC1(C)SCCN(S(=O)(=O)c2ccc(OCC#CCO)cc2)[C@H]1C(=O)NO [apratastat polymorph form A, (3S)-N-hydroxy-4-({4-[(4-hydroxy-2-butynyl)oxy]phenyl}sulfonyl)-2,2-dimethyl-3-thiomorpholinecarboxamide]
solid form stability in low-moisture environment ([2]; about 4-5% relative humidity, at or near room temperature): a portion or all of the polymorph may convert to a new form (form B)

solid form stability under ambient conditions ([2]; ambient conditions, little or no energy input): can convert back to form A
solid form stability upon mild heating ([2]; at or above about 35° C., ambient humidity levels): disappears
SMILES: CC1(C)SCCN(S(=O)(=O)c2ccc(OCC#CCO)cc2)[C@H]1C(=O)NO [Form B, (3S)-N-hydroxy-4-({4-[(4-hydroxy-2-butynyl)oxy]phenyl}sulfonyl)-2,2-dimethyl-3-thiomorpholinecarboxamide]

SMILES: CC1(C)SCCN(S(=O)(=O)c2ccc(OCC#CCO)cc2)[C@H]1C(=O)NO [apratastat, (3S)-N-hydroxy-4-({4-[(4-hydroxy-2-butynyl)oxy]phenyl}sulfonyl)-2,2-dimethyl-3-thiomorpholinecarboxamide]
inhibition of TACE [3]: potent, reversible, and competitive inhibitor
inhibition of TNF-α secretion [4]: inhibits TNF-α secretion
TNF-α inhibition (TNF-α [5]): potent TNF-α inhibitor
TNF-α inhibition (TNF-α [6]): potent TNF-α inhibitor
inhibition of TACE [7]: inhibitor
inhibition of MMP enzymes [8]: inhibitor
